Experimental data reported in PMC6522510 (Nature Communications, 2019).
Read-outs that look alike come from different tables or passages of the source.

Columns and labels:
Set-up in all cases: species or system AML cell lines (8); Primary HTS, single concentration about 10 uM, Cell Titer Glo viability; log10 luminescence, per cent inhibition relative to cycloheximide control
Conditions in all cases: 72 h, inhibitor
CHRF288-11 = system: CHRF288-11
CMK = system: CMK
CMS = system: CMS
M07e = system: M07e
ML-2 = system: ML-2
MOLM-13 = system: MOLM-13
MV4-11 = system: MV4-11
U937 = system: U937
[1] = relative to cycloheximide control, log10 luminescence

Structure (SMILES)	CHRF288-11 %inh (CHRF288-11; [1])	CMK %inh (CMK; [1])	CMS %inh (CMS; [1])	M07e %inh (M07e; [1])	ML-2 %inh (ML-2; [1])	MOLM-13 %inh (MOLM-13; [1])	MV4-11 %inh (MV4-11; [1])	U937 %inh (U937; [1])	CHRF288-11 %inh (CHRF288-11; 10 µM)	CMK %inh (CMK; 10 µM)	CMS %inh (CMS; 10 µM)	M07e %inh (M07e; 10 µM)	ML-2 %inh (ML-2; 10 µM)	MOLM-13 %inh (MOLM-13; 10 µM)	MV4-11 %inh (MV4-11; 10 µM)	U937 %inh (U937; 10 µM)
COc1cc2c(cc1Nc1nc(Nc3cccc(F)c3C(N)=O)c3cc[nH]c3n1)N(C(=O)CN1CCN(C(C)C)CC1)CC2 [SJ000573284-1, U23773/22/1]	156%	28.42%	4.776%	-2.07%	60.74%	110%	-1.565%	-4.151%								
COC(=O)Nc1nc2ccc(Oc3ccc(NC(=O)Nc4cc(C(F)(F)F)ccc4F)cc3)cc2s1 [SJ000573286-1, T277/77/2]	2.804%	4.078%	-2.124%	9.62%	3.773%	27.47%	23.01%	-3.236%								
Nc1nc(-c2cccc(Cl)c2)c(-c2ccc3ncccc3n2)s1 [SJ000573287-1, FTTA/246/163/2]	1.906%	-4.613%	0.5039%	1.682%	2.244%	-0.7857%	-3.034%	-2.159%								
Cc1nnc(-c2cccc(-c3ccc(C(=O)NCC4CC4)cc3)c2)o1 [SJ000573288-1, N5058-19-3]	-4.251%	3.578%	-1.146%	0.8786%	2.007%	2.072%	-0.4477%	-1.478%								
CN(C)CCOc1ccc(-c2nc(-c3ccncc3)c(-c3ccc4c(c3)CC/C4=N\O)[nH]2)cc1 [SJ000573289-1, MM206071-092A1 | SB590885]	9.844%	-1.288%	1.753%	3.647%	-1.225%	11.69%	2.418%	1.485%								
COc1ccc(COc2ccc(Cc3cnc(N)nc3N)cc2OC)cc1 [SJ000573290-1, U22490/41/5 | GW2580 | CFMS RECEPTOR TYROSINE KINASE INHIBITOR | CSF-1 RECEPTOR INHIBITOR | GW-2580 | GW2580]	2.429%	9.776%	-2.221%	0.1702%	2.578%	5.043%	1.548%	5.457%								
CCS(=O)(=O)c1ccc(OC)c(Nc2ncc(-c3ccccc3Cl)o2)c1 [SJ000573291-1, U15747/47/1]	-4.64%	-1.56%	-1.399%	-1.838%	-1.239%	-0.8597%	15.16%	1.267%								
COc1cc2ncn(-c3cc(OCc4ccccc4C(F)(F)F)c(C(C)=O)s3)c2cc1OC [SJ000573292-1, U22436/134/1]	-3.203%	-1.073%	0.7881%	-3.084%	-2.426%	-1.507%	-4.181%	-1.322%								
Cc1cccc(-c2n[nH]cc2-c2ccc3ncccc3n2)n1 [SJ000573293-1, FFJG/252/112/1 | REPSOX]	4.75%	1.842%	2.179%	-1.053%	2.229%	-2.402%	1.439%	6.099%								
Nc1nc(-c2ccc3c(c2)C(=Cc2cc(Br)c(O)c(Br)c2)C(=O)N3)cs1 [SJ000573294-1, U11298/118/1]	13.11%	-5.127%	1.564%	2.045%	0.7137%	-2.176%	-2.964%	-1.497%								
COc1cc2ncn(-c3cc(OCc4ccccc4S(C)(=O)=O)c(C#N)s3)c2cc1OC [SJ000573295-1, U24235/171/40 | IKK-3 INHIBITOR IX | CAY10576]	3.431%	-4.233%	-0.09194%	3.197%	2.593%	-1.258%	0.8968%	1.496%								
COc1ccc(-c2oc3ncnc(N)c3c2-c2ccc(NC(=O)Nc3cc(C(F)(F)F)ccc3F)cc2)cc1 [SJ000573296-1, T299/60/1]	-2.7%	1.218%	0.08626%	-1.472%	0.8185%	23.97%	5.923%	-2.62%								
CCCN1CCC(Oc2cc(Nc3nc(Nc4cccc(F)c4C(N)=O)c4cc[nH]c4n3)c(OC)cc2Cl)CC1 [SJ000573297-1, U23772/200/1]	4.97%	2.381%	-0.1818%	3.715%	2.245%	2.944%	-2.06%	0.7849%								
COc1cc(N2CCN(C(C)C)CC2)ccc1Nc1nc(Nc2ccc(F)cc2C(N)=O)c2cc[nH]c2n1 [SJ000573298-1, U22490/47/4]	127%	61.83%	47.53%	44.9%	34.55%	113.4%	68.67%	43.61%								
COC(=O)Nc1nc2cc(Oc3cccc(NC(=O)Nc4cc(C(F)(F)F)ccc4F)c3)ccc2[nH]1 [SJ000573299-1, T261/2/3]	-6.517%	4.931%	-1.053%	-5.089%	-3.985%	2.873%	1.052%	-3.556%								
COc1cc(N2CCN(C(C)C)CC2)ccc1Nc1nc(Nc2cccc3ncccc23)c2cc[nH]c2n1 [SJ000573300-1, U24088/12/1]	47.23%	79.69%	0.4893%	3.774%	8.95%	33.94%	11.79%	16.14%								
COc1cc(N2CCN(C(C)C)CC2)ccc1Nc1nc(Nc2ccc(F)cc2C(=O)NC[C@@H](O)CO)c2cc[nH]c2n1 [SJ000573301-1, U23662/84/1]	7.394%	-2.061%	-0.165%	18.85%	23.23%	61.15%	49.16%	47.45%								
COc1cc(N2CCN(C(C)C)CC2)ccc1Nc1nc(Nc2cccc(F)c2C(=O)O)c2cc[nH]c2n1 [SJ000573302-1, U24644/141/1]	2.245%	-4.539%	-1.742%	1.407%	1.383%	-2.196%	-1.676%	-3.308%								
NS(=O)(=O)c1ccc(Nc2ncc(-c3ccccc3)o2)cc1 [SJ000573303-1, U14961/32/1]									3.992%	30.97%	6.689%	5.73%	4.386%	74.24%	64.71%	6.622%
CN1CCN(CCCNc2nc3ccc(Oc4ccc(NC(=O)Nc5cc(C(F)(F)F)ccc5F)cc4)cc3[nH]2)CC1 [SJ000573304-1, T278/35/2]	-0.361%	2.938%	2.836%	5.692%	1.341%	79.64%	57.09%	2.101%								
COc1cccc(COc2cc(-n3cnc4ccccc43)sc2C(N)=O)c1 [SJ000573305-1, U17845/44/3]	7.099%	1.494%	2.005%	2.73%	3.033%	4.701%	0.1016%	5.488%								
CNC(=O)c1sc(-n2cnc3cc(OC)c(OC)cc32)cc1OCc1ccccc1C(F)(F)F [SJ000573306-1, U22436/130/1]	8.101%	19.06%	0.3871%	-3.893%	3.023%	15.4%	7.836%	5.347%								
